Experiments:
Type in all cases: in vivo, Arabidopsis thaliana
[1] = tested on: WT, jazQ and jazD seedlings; assay: Apical hook formation in ethylene-elicited (ACC-treated) seedlings; conditions: jazD and jazQ seedlings compared with WT
Text: FIGS. 3A-3F illustrates that jazD plants are highly resistant to insect herbivores and necrotrophic pathogens. […] Data shown are the mean±SD of at least 30 larvae per genotype. Capital letters denote significant differences according to Tukey's HSD test (P<0.05). FIG. 3C is a heat map displaying the expression level of various jasmonate/ethylene-responsive genes in leaves of jazQ and jazD normalized to wild type. ACT, agmatine coumaroyl transferase (accession no. At5g61160). […] FIG. 3E graphically illustrates disease lesion size on leaves of the indicated genotypes following 5 days of treatment with B. cinerea spores for the indicated plant lines. […] Capital letters denote significant differences (Tukey's HSD test, P<0.05). FIG. 3F graphically illustrates apical hook angles of seedlings grown in the presence of various concentrations of the ethylene precursor 1-aminocyclopropane-1-carboxylic acid (ACC). Data shown are the mean±SD of at least 21 seedlings per genotype. […]
In agreement with the RNA-seq data, jazQ plants were slightly more susceptible than wild type to the necrotrophic pathogen Botrytis cinerea, whereas jazD leaves were more resistant to the spread of disease lesions (FIG. […]). To determine whether jazQ and jazD differentially affect other ethylene responses, the inventors assessed apical hook formation in ethylene-elicited seedlings.

[2] = tested on: wild type Col-0 (WT), jazQ, jazD and jazU seedlings; assay: Root elongation assay with MeJA
Protocol: Seeds were surface sterilized with 50% (v/v) bleach for three min, washed 10 times with sterile water and stratified in dark at 4° C. for two days. Seedlings were grown on 0.7% (w/v) agar media containing half-strength Linsmaier and Skoog (LS; Caisson Labs) salts supplemented with 0.8% (w/v) sucrose and the indicated concentration of MeJA (Sigma-Aldrich). Each square Petri plate (Fisher; 100×100×15 mm) contained five seedlings per genotype. Plates were incubated vertically in a growth chamber maintained at 21° C. for eight days under 16-hour-light (80 μE m^−2s^−1)/8-hour-dark conditions. The length of primary roots was measured using ImageJ software (see website at imagej.nih.gov/ij/).

[3] = tested on: WT, cdk8-1, jazD and jazD cdk8-1 seedlings; assay: Root length on medium with 5-methyl-tryptophan; conditions: 0 or 15 μM 5-MT, 10-day-old, partially dependent on CDK8
Text: FIG. 13A is a schematic of tryptophan biosynthesis from chorismate. Tryptophan feedback inhibits the activity of anthranilate synthase (AS). Although 5-methyl-tryptophan (5-MT) inhibits anthranilate synthase activity, it cannot be used for the production of proteins. The abbreviations used in FIG. 13A are: TRP, anthranilate phosphoribosyltransferase: PAI, phosphoribosylanthranilate isomerase; IGPS, indole-3-glycerol-phosphate synthase; TSA, tryptophan synthase alpha subunit: TSB, tryptophan synthase beta subunit. FIG. 13B graphically illustrates root length of WT, cdk8-1, jazD, and jazD cdk8-1 10-day-old seedlings grown on medium supplemented with 0 or 15 μM of 5-methyl-tryptophan (5-MT). Data shown are the mean±SD of at least 24 seedlings per genotype at each 5-MT concentration. Letters denote significant differences according to Tukey's HSD test (P<0.05).
FIG. 13B graphically illustrates root length of WT, cdk8-1, jazD, and jazD cdk8-1 10-day-old seedlings grown on medium supplemented with 0 or 15 μM of 5-methyl-tryptophan (5-MT). The data shown in FIG. 13B are the mean±SD of at least 24 seedlings per genotype at each 5-MT concentration, while the letters denote significant differences according to Tukey's HSD test (P<0.05).

[4] = tested on: WT, jazQ and jazD seedlings; assay: Sucrose rescue assay (leaf biomass and root growth)
Protocol: The effect of exogenous sucrose on leaf biomass and root growth was determined by growing seedlings on square Petri plates (Greiner Bio-One; 120×120×17 mm). In order to control for variation in seed quality, seeds were sieved after drying with desiccant for two weeks (see above). After sterilization and washing, seeds were sown without stratification on 0.7% (w/v) agar media containing half-strength LS salts supplemented with sucrose or sorbitol. Each plate contained ten (for biomass) or five (for root growth) seeds of Col-0 and mutant lines. Plates were placed in the dark at 4° C. for four days and then incubated horizontally (for leaf biomass) or vertically (for root growth) in growth chambers maintained at 21° C. under 16 h at a light intensity of 80 μE m^−2 s^−1 and 8-hour dark. ImageJ was used to measure root length after 11 days. Plant biomass and projected leaf area were measured after 16 days.

[5] = tested on: leaves of wild type, jazQ and jazD plants; assay: Coronatine treatment of intact leaves; conditions: 50 μM coronatine
Protocol: The eighth true leaf of 40-day-old plants grown under 12-hour-light/12-hour-dark conditions were spotted with 5 μL of sterile water (mock) or a solution containing 50 μM coronatine (Sigma-Aldrich, C8115) prepared in sterile water. Photographs were taken two and four days after treatment.

SMILES: NC1(C(=O)O)CC1 [ACC, 1-aminocyclopropane-1-carboxylic acid]
- stimulation of hook curvature in response to ACC [1]: reduced in jazD but not jazQ seedlings

SMILES: CC/C=C\CC1C(=O)CCC1CC(=O)OC (stereo not shown) [MeJA, methyljasmonate]
- sensitivity of jaz decuple mutant (jazD) to jasmonate ([2]; jazD seedlings, 0, 5 or 25 μM MeJA, 8-day-old): highly sensitive
- growth of roots in the presence of MeJA ([2]; jazD seedlings, 5 μM MeJA): effectively arrested
- root length in the presence of MeJA ([2]; jazU seedlings versus jazD, very low concentrations (e.g., 1 μM) of MeJA): even shorter than jazD

SMILES: Cc1ccc2[nH]cc(C[C@H](N)C(=O)O)c2c1 [5-MT, 5-methyl-tryptophan]
- resistance to 5-MT (root length) [3]: increased resistance

SMILES: OC[C@H]1O[C@@](CO)(O[C@H]2O[C@H](CO)[C@@H](O)[C@H](O)[C@H]2O)[C@@H](O)[C@@H]1O [sucrose]
- effect of exogenous sucrose on biomass ([4]; all genotypes tested (WT, jazQ, jazD), 16-day-old seedlings on agar medium): promotes increased biomass
- effect of exogenous sucrose on root growth ([4]; jazD in comparison with wild type and jazQ, 11-day-old seedlings, 23 mM sucrose): enhanced the root growth of jazD
- stimulatory effect of sucrose on growth of shoots ([4]; jazD shoots compared with wild type and jazQ): statistically greater than that of wild type and jazQ

SMILES: CC[C@H]1C=C(C(=O)N[C@@]2(C(=O)O)C[C@@H]2CC)[C@H]2CCC(=O)[C@H]2C1 [coronatine]
- sensitivity of jazD leaves to coronatine ([5]; jazD leaves, 2 or 4 days): hypersensitive
- leaf response after COR application ([5]; jazD leaves, 4 days after treatment): near complete loss of chlorophyll and spreading of necrosis-like symptoms throughout the leaf
- leaf response at the site of COR application ([5]; jazD leaves, within 2 days of treatment): visible chlorosis
- chlorosis after COR application ([5]; wild type and jazQ leaves, within 4 days): no apparent signs of chlorosis
- leaf response at the site of COR application ([5]; wild type and jazQ leaves, within 4 days of treatment): visible accumulation of anthocyanin pigments

Source: US11939588B2, “Elevated resistance to insects and plant pathogens without compromising seed production” (Board of Trustees of Michigan State University, priority 2019, dated 2024)
